12 molecules from patent US20230303553A1, “CDK6/DYRK2 DUAL-TARGET INHIBITOR, AND PREPARATION METHOD THEREFOR AND USE THEREOF” (JIANGSU TASLY DIYI PHARMACEUTICAL CO., LTD., priority 2021, published 2023) can be followed below.

The structures appear in SMILES notation. Structures can show the parent of a compound that is named as a salt.

Sequence of CDK6 kinase (Q00534 whole entry): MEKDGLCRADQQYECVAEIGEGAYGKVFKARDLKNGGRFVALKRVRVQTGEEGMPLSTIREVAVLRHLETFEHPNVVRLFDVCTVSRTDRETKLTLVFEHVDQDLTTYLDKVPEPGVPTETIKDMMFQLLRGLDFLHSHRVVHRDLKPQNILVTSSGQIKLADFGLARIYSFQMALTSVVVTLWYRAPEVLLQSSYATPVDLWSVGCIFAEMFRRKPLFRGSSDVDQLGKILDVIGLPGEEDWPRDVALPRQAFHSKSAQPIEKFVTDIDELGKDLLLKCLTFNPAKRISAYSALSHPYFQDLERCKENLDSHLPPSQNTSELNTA
Sequence of CDK6 kinase (P24385 whole entry partner): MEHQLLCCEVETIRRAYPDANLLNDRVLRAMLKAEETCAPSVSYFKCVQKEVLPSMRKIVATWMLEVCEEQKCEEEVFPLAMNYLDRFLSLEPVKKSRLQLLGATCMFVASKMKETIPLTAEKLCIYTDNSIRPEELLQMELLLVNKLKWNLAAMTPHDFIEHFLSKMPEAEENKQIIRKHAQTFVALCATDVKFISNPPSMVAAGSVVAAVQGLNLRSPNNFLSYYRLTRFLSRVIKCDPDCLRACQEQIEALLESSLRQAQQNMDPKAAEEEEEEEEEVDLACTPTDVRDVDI

This experiment has as its target CDK6 kinase (Homo sapiens (Human), UniProt Q00534). The experiment can be described thus: CDK6 kinase activity, Lance Ultra TR-FRET. It is filed as biochemical. In general terms: TR-FRET usually uses a lanthanide donor and a delayed reading to cut background.
Broadly, the IC50 is the concentration that inhibits the measured activity by half. Lower therefore signals inhibition by little substance. `CN(C)c1nc2ccc(-c3nc(Nc4ccc(C(=O)N5CCN(C(=O)OC(C)(C)C)CC5)cn4)ncc3F)cc2s1` [Example 34, tert-butyl 4-(6-((4-(2-(dimethylamino)benzothiazole-6-yl)-5-fluoropyrimidine-2-yl)amino)nicotinoyl)piperazine-1-carboxylate] displayed a 50% inhibitory concentration (IC50) of over 10000 nM.
Consider `CCOC(=O)N1CCN(Cc2ccc(Nc3ncc(F)c(-c4ccc5nc(N(C)C)sc5c4)n3)nc2)CC1` [Example 38, ethyl 4-((6-((4-(2-(dimethylamino)benzothiazole-6-yl)-5-fluoropyrimidine-2-yl)amino)pyridine-3-yl)methyl)piperazine-1-carboxylate], for which the half-inhibitory concentration (IC50) is over 1000 nM.
For the molecule `CC(C)(C)OC(=O)N1CCN(c2ccc(Nc3ncc(F)c(-c4ccc5ncsc5c4)n3)nc2)CC1` [Example 7, tert-butyl 4-(6-((4-(benzothiazole-6-yl)-5-fluoropyrimidine-2-yl)amino)pyridine-3-yl)piperazine-1-carboxylate], the IC50 is over 10000 nM.
The molecule `Cc1nc2ccc(-c3nc(Nc4ccc(C(=O)N5CCN(C(=O)OC(C)(C)C)CC5)cn4)ncc3F)cc2s1` [Example 16, tert-butyl 4-(6-((5-fluoro-4-(2-methylbenzothiazole-6-yl)pyrimidine-2-yl)amino)nicotinoyl)piperazine-1-carboxylate] showed an IC50 of 86 nM.
As for `CN(C)c1nc2ccc(-c3nc(Nc4ccc(N5CCN(C(=O)OC(C)(C)C)CC5)cn4)ncc3F)cc2s1` [Example 40, tert-butyl 4-(6-((4-(2-(dimethylamino)benzothiazole-6-yl)-5-fluoropyrimidine-2-yl)amino)pyridine-3-yl)piperazine-1-carboxylate], the figure is over 1000 nM; as for `CCOC(=O)N1CCN(Cc2ccc(Nc3ncc(F)c(-c4ccc5nc(N(CC)CC)sc5c4)n3)nc2)CC1` [Example 49, ethyl 4-((6-((4-(2-(diethylamino)benzothiazole-6-yl)-5-fluoropyrimidine-2-yl)amino)pyridine-3-yl)methyl)piperazine-1-carboxylate], over 10000 nM; as for `CN(C)c1nc2ccc(-c3nc(Nc4ccc(CN5CCN(S(C)(=O)=O)CC5)cn4)ncc3F)cc2s1` [Example 37, 6-(5-fluoro-2-((5-((4-(methanesulfonyl)piperazine-1-yl)methyl)pyridine-2-yl)amino)pyrimidine-4-yl)-N,N-dimethylbenzothiazole-2-amine], over 10000 nM.
`CCN(CC)c1nc2ccc(-c3nc(Nc4ccc(CN5CCN(C(=O)OC(C)(C)C)CC5)cn4)ncc3F)cc2s1` [Example 44, tert-butyl 4-((6-((4-(2-(diethylamino)benzothiazole-6-yl)-5-fluoropyrimidine-2-yl)amino)pyridine-3-yl)methyl)piperazine-1-carboxylate] displayed an IC50 of over 1000 nM.
Molecule `CN(C)c1nc2ccc(-c3nc(Nc4ccc(C(=O)N5CCNCC5)cn4)ncc3F)cc2s1` [Example 35, (6-((4-(2-(dimethylamino)benzothiazole-6-yl)-5-fluoropyrimidine-2-yl)amino)pyridine-3-yl)(piperazine-1-yl)ketone hydrochloride] registered an IC50 of 41 nM.
Regarding `CCN(CC)c1nc2ccc(-c3nc(Nc4ccc(C(=O)N5CCN(C(C)C)CC5)cn4)ncc3F)cc2s1` [Example 51, (6-((4-(2-(diethylamino)benzothiazole-6-yl)-5-fluoropyrimidine-2-yl)amino)pyridine-3-yl)(4-isopropylpiperazine-1-yl)ketone], half-maximal inhibition (IC50) was put at 8 nM.
In turn, `Fc1cnc(Nc2ccc(CN3CCNCC3)cn2)nc1-c1ccc2ncsc2c1` [Example 4, 4-(benzothiazole-6-yl)-5-fluoro-N-(5-(piperazine-1-ylmethyl)pyridine-2-yl)pyrimidine-2-amine hydrochloride] came in with a half-inhibitory concentration (IC50) of 268 nM.
The same measure for `CCN(CC)c1nc2ccc(-c3nc(Nc4ccc(CN5CCN(C(C)C)CC5)cn4)ncc3F)cc2s1` [Example 50]: 31 nM.
